Laboratory results from ChEMBL document CHEMBL1151217, “New cytotoxic terpenoids from the wood of Vepris punctata from the Madagascar Rainforest” (J Nat Prod, 2004).
Values after ≈ are worked out from the molar mass of the structure shown.

Tested on: A2780
Assay: Cytotoxicity against human A2780 cells
Format: functional, cell-based

`C=C(C)[C@@H]1CC[C@]2(C)CC[C@]3(C)[C@H](CC[C@@H]4[C@@]5(C)CC[C@H](OC(C)=O)C(C)(C)[C@@H]5CC[C@]43C)[C@@H]12` [LUPENYL ACETATE] and `C=C(C)[C@@H]1CC[C@]2(C)CC[C@]3(C)[C@H](CC[C@@H]4[C@@]5(C)CC[C@H](O)C(C)(C)[C@@H]5CC[C@]43C)[C@@H]12` [LUPEOL] are within 1.5-fold of each other in IC50: 22.6 µg/mL for the first, 26.4 µg/mL (≈ 61.9 µM) for the second.

`CC1(C)CC[C@]2(C)CC=C3[C@]4(C)CC[C@H]5C(C)(C)[C@H](O)CC[C@]5(C)[C@H]4CC[C@@]3(C)[C@@H]2C1` and `CC1(C)CC[C@]2(C)CC=C3[C@]4(C)CC[C@H]5C(C)(C)[C@@H](O)CC[C@]5(C)[C@H]4CC[C@@]3(C)[C@@H]2C1` [TARAXEROL] are within 1.5-fold of each other in IC50: 24.4 µg/mL (≈ 57.2 µM) for the first, 21.8 µg/mL (≈ 51.1 µM) for the second.

`C[C@H]1[C@H](C)CC[C@]2(C)CC[C@]3(C)C(=CC[C@@H]4[C@@]5(C)CC[C@H](O)C(C)(C)[C@@H]5CC[C@]43C)[C@H]12` and `CC(=O)O[C@H]1O[C@H]2C[C@@]13CC=C1[C@]4(C)[C@@H]5O[C@@H]5[C@H]5C(C)(C)[C@H](O)CC[C@]5(C)[C@H]4CC[C@@]1(C)[C@@H]3CC2(C)C` are within 1.5-fold of each other in IC50: 20.6 µg/mL (≈ 48.3 µM) for the first, 21.5 µg/mL (≈ 41.9 µM) for the second.

`CC1=C2C/C=C(\C)CC/C=C(\C)C[C@@H]2OC1=O` [GLECHOMANOLIDE] and `CC(C)=C1C/C=C(\C)CC/C=C(\C)CC1` are within 1.5-fold of each other in IC50: 5.3 µg/mL (≈ 22.8 µM) for the first, 6.4 µg/mL (≈ 31.3 µM) for the second.

`CC1=C2C[C@H]3O[C@]3(C)CC[C@H]3O[C@@]3(C)C[C@@H]2OC1=O` and `C=C[C@]1(C)C[C@@H]2OC(=O)C(C)=C2C[C@H]1C(=C)C` [ISOGERMAFURENOLIDE] are within 1.5-fold of each other in IC50: 3.8 µg/mL (≈ 14.4 µM) for the first, 4.5 µg/mL (≈ 19.4 µM) for the second.
